In the experiment the test system is MCF7. Description: Cytotoxic concentration against MCF-7 cells was determined. The conditions noted are these: Homo sapiens. It counts as functional, cell-based.

Molecules are shown by their SMILES.

As usually defined, the IC50 is the concentration that gives 50% inhibition. `O=C(/C=C/c1ccc(Br)cc1)c1ccccc1O` registered a concentration for half-maximal inhibition (IC50) of 12.3 µM.

The record behind these values is ChEMBL document CHEMBL1135340, “Efficient liquid-phase synthesis of 2'-hydroxychalcones” (Bioorg Med Chem Lett, 2002).
